Experimental data: patent US20250163387A1, “HUMAN PITUITARY NEUROENDOCRINE TUMOR ORGANOIDS AND METHODS OF MAKING AND USING THE SAME” (ARIZONA BOARD OF REGENTS OF THE UNIVERSITY OF ARIZONA, A …, priority 2022, published 2025)

What was measured:
iPSC^ctrl organoids [1] = experiment: Nuclear irregularity index (NII) morphometric analysis; format: cell-based, human; conditions: 500 nM
Experimental: (§1) Nuclear Morphometric Analysis (NMA) using treated organoids was performed based on a published protocol that measures cell viability based on the changes in nuclear morphology of the cells using nuclear stain Hoechst or DAPI [30]. Images of organoid nuclei were analyzed using the ImageJ Nuclear Irregularity Index (NII) plugin for key parameters that included cell area, radius ratio, area box, aspect, and roundness. Using the published spreadsheet template, the NII of each cell was calculated with the following formula: NII=Aspect−Area Box+Radius Ratio+Roundness. The area vs NII of vehicle-treated cells were plotted as a scatter plot using the template and considered as the normal cell nuclei. The same plots were generated for each condition, and the NII and area of treated cells were compared to the normal nuclei, and classified as one of the following NMA populations: Normal (N; similar area and NII), Mitotic (S; similar area, slightly higher NII), Irregular (I; similar area, high NII), Small Regular (SR; apoptotic, low area and NII), Senescent (LR; high area, low NII), Small Irregular (SI; low area, high NII), or Large Irregular (LI; high area, high NII). […] The percentage of cells in each NII classification category were calculated and plotted as a histogram using GraphPad Prism.

iPSC^USP48MV organoids [2] = experiment: as above; format: cell-based, human; conditions: 500 nM
Experimental: as §1

iPSC^ctrl organoids [3] = experiment: Proliferation by EdU uptake; format: cell-based, human; conditions: drug alone, 500 nM
Experimental: (§2) Organoids were immunostained using published protocols by our laboratory. Proliferation was measured by using 5-ethynyl-2'-deoxyuridine (EdU) incorporation according to the Manufacturer's protocol (Click-IT EdU Alexa Fluor 555 Imaging Kit, Thermo Fisher Scientific C10338). Costaining was performed by blocking fixed organoids with 2% donkey serum (Jackson Immuno Research, #017-000-121) diluted in 0.01% PBST for 1 hr. at room temperature. Organoids were then incubated overnight at 4° C. with primary antibodies followed by secondary antibodies and Hoechst (Thermo Fisher Scientific H1399, 1:1000 in 0.01% PBST) for 1 hr at room temperature. Human specific primary antibodies used included: rabbit anti-ACTH (Thermo Fisher Scientific 701293, 1:250), rabbit anti-Synaptophysin (Thermo Fisher Scientific PA5-27286, 1:100), […] (Thermo Fisher Scientific PA5-98650, 1:50), rabbit anti-LH (Thermo Fisher Scientific PA5-102674, 1:100), mouse anti-FSH (Thermo Fisher Scientific MIF2709, 1:100), mouse anti-PRL (Thermo Fisher Scientific CF500720, 1:100), Alexa Flour conjugated GH (NB500-364AF647, 1:100) and mouse anti-CAM5.2 (SIGMA […]-95, 1:250). The secondary antibodies used included Alexa Fluor 488 Donkey Anti Rabbit IgG (H+L) (Thermo Fisher Scientific A21206, 1:100) or Alexa Fluor 647 Donkey Anti Mouse IgG (H+L) (Thermo Fisher Scientific A31571, 1:100). Organoids were visualized and images acquired by confocal microscopy using the Nikon CrestV2 Spinning Disk. Fluorescence intensity and percentage of EdU positive cells of total cells, were calculated using Nikon Elements Software (Version 5.21.05).

iPSC^USP48MV organoids [4] = experiment: Proliferation by EdU uptake; format: cell-based, human; conditions: drug alone, 500 nM
Experimental: as §2

FKBP5 = experiment: GR modulation: GR target gene FKBP5 expression in PitNET organoids; format: cell-based, human
SSTR5 = experiment: Differential expression of SSTR5 in iPSC generated pituitary tumor organoids; format: cell-based, human; conditions: iPSC organoids (ctrl, USP48MI, USP48MV, USP8); 500 nM; vs vehicle
iPSC^USP48MV organoids [5] = experiment: Spectral flow cytometry (SSTR2, SSTR5, ACTH, zombie); format: cell-based, human; conditions: Rela 500 nM, Mife 500 nM
Experimental: (§3) The multicolor flow cytometry panel was designed using the Cytek®Full Spectrum Viewer online tool to calculate the similarity index. The organoids were harvested in cold SFDM media and centrifuged at 400×g for 5 minutes. Supernatant was discarded and organoids were dissociated to single cells using Accutase® (Thermo Fisher Scientific 00-4555-56). The enzymatic reaction was stopped using prewarmed DPBS and cells were then centrifuged at 400×g for 5 minutes and incubated with fluorochrome-conjugated/unconjugated primary surface or cytoplasmic antibodies at 4° C. for 30 minutes. Cells were then washed with Cell Staining Buffer (BioLegend #420-201) and incubated with secondary antibodies at 4° C. for 30 minutes. Cells were fixed using Cytofix/Cytoperm™ Fixation/Permeabilization Solution (BD Biosciences #554714) at 4° C. for 20 minutes, followed by washing with Fixation/Permeabilization wash buffer. Cells were then labeled with fluorochrome-conjugated/unconjugated intracellular primary antibodies at 4° C. for 30 minutes, washed and incubated with secondary antibodies at 4° C. for 30 minutes. Cells resuspended in cell staining buffer and fluorescence measured using the Cytek Aurora 5 Laser Spectral Flow Cytometer. An unstained cell sample was fixed and used as reference control. UltraComp eBeads™, Compensation Beads (Thermo Fisher Scientific #01-2222-42) were stained with the individual antibodies and used as single stain control for compensation and gating. Data was acquired using the Cytek™ Aurora and analyzed using Cytobank software (Beckman Coulter, Indianapolis, IN).

hPITO37 = experiment: as above; format: cell-based, human; conditions: Rela 382 nM, Mife 2.85 nM
Experimental: as §3

SSTR2 = experiment: Differential expression of SSTR2 in iPSC generated pituitary tumor organoids; format: cell-based, human; conditions: iPSC organoids (ctrl, USP48MI, USP48MV, USP8); 500 nM; vs vehicle
[6] = tested on: pancreatic and ovarian cancer cell lines; conditions: cited from earlier work
macroadenomas = conditions: patients with macroadenomas; relacorilant for three months; cited from earlier work

## Cn1cc(S(=O)(=O)N2CCC3=Cc4c(cnn4-c4ccc(F)cc4)C[C@]3(C(=O)c3cc(C(F)(F)F)ccn3)C2)cn1 [relacorilant]
iPSC^ctrl organoids [1]
  apoptotic cells by nuclear morphology (NII): not observed
iPSC^USP48MV organoids [2]
  apoptotic cells by nuclear morphology (NII): increased apoptotic cells
iPSC^ctrl organoids [3]
  cell proliferation (EdU uptake): did not induce organoid proliferation
iPSC^USP48MV organoids [4]
  cell proliferation (EdU uptake): did not induce organoid proliferation
FKBP5
  differential expression of FKBP5: significantly reduced
SSTR5
  expression of SSTR5: significant induction
iPSC^USP48MV organoids [5]; Pas 100 nM
  ACTH positive cells: did not significantly increase
  cell death (Zombie positive cells): significant increase
iPSC^USP48MV organoids [5]; vs Veh
  percentage of SSTR2 positive cells: significant increase
  percentage of SSTR5 positive cells: significant increase
hPITO37; Pas 837.5 nM
  cell death (Zombie positive cells): significant increase
hPITO37; vs Veh
  percentage of SSTR2 positive cells: significant increase
  percentage of SSTR5 positive cells: significant increase
SSTR2
  expression of SSTR2: significant induction
[6]
  apoptosis in vitro: induces apoptosis
macroadenomas
  tumor (macroadenoma) regression: tumor regression in two patients
